According to patent US20050187179A1, “Apoptosis inducing agents and methods” (The Government of the United States of America as …, priority 1998, published 2005):

Experiments:
[1] = tested on: HL-60 human promyelocytic leukemia cells; set-up: key: +: Compound induces terminal differentiation of the transformed cells; conditions: terminal differentiation; cited from earlier work
[2] = tested on: HT-29 human colon cancer cells; set-up: key: +: Compound induces terminal differentiation of the transformed cells; conditions: terminal differentiation; cited from earlier work
[3] = tested on: MEL murine erythroleukemia cells; set-up: key: +: Compound induces terminal differentiation of the transformed cells; conditions: terminal differentiation; cited from earlier work
Transformed cells = conditions: Table 2, hybrid polar compounds; cited from earlier work
MEL cells [4] = conditions: cited from earlier work; for HG cells, % (% of cells hemoglobinized): Table 3, at optimal concentration; for Opt. [ ], μM (Optimal concentration): Table 3
Notch-1 = Notch-1 mRNA and protein expression in MEL cells with HMBA (RT-PCR, western blot); type: cell-based, mouse; conditions: 5 mM HMBA, 4 to 120 hours
Experimental: Total RNA was extracted from cells using Trizol reagent (Life Technologies). RT-PCR was performed using the Thermostable Reverse Transcriptase RNA PCR kit (Perkin Elmer) according to manufacturer's instructions. Reactions were amplified in a Perkin Elmer 2400 DNA thermal cycler for 40 cycles of denaturation at 94° C. for 1 minute, annealing and extension at 65° C. for 2 minutes. Amplification of mouse primers specific for Notch-1, SEQ ID NO 1, and SEQ ID NO 2, generated a product of 431 bp. Primers specific for GAPDH: sense 5′ TCACCACCATGGAGAAGG 3′ (SEQ ID NO 3) and antisense 5′ […] 3′ (SEQ ID NO 4) generated a 200 bp product. Negative and positive PCR controls were included in every experiment.
To determine whether Notch-1 expression is regulated during HMBA-induced MEL cell differentiation, Notch-1 mRNA levels were analyzed in MEL cells set up at equal density and maintained in culture for 4, 8, 24 or 120 hours in the absence or presence of HMBA.
Notch-1 steady state protein levels were determined by western blot using the polyclonal antibody to Notch-1 (see Example 2). […] Notch-1 steady state protein levels reflected the Notch-1 mRNA pattern of expression. In the presence of HMBA (H), Notch-1 protein was reproducibly evident in the early stages of induction, but gradually disappeared becoming essentially undetectable at 120 hours. […] In uninduced MEL cells (C). […]

MEL cells [5] = assay: HMBA-induced MEL cell differentiation, benzidine staining for hemoglobin; type: cell-based, mouse; conditions: 5 mM HMBA, at 120 hours
Experimental: Murine erythroleukemia Friend cells (MEL), were maintained in RPMI supplemented with 10% (v/v) heat inactivated fetal bovine serum (HyClone) and 10^−5 M β-mercaptoethanol (β-ME). To induce differentiation, logarithmically growing cells were plated at 1×10^5 cells/ml in medium containing 5 mM HMBA for 120 hours. Cells were passaged to initial density at 72 hours. Cells were assayed for the presence of hemoglobin (Orkin et al., Proc. Natl. Acad. Sci. USA 1975, 72:98-102) by the addition of 1/10 volume of freshly prepared benzidine reagent (0.4% benzidine base, 2% hydrogen peroxide in 12% acetic acid). Benzidine positive cells were counted in modified Neubauer hemocytometers. Each sample was counted by two independent operators, blinded to the cell treatment, and readings were averaged.
The accumulation of differentiated cells, as determined by benzidine staining, was analyzed during the 120 hours of culture with HMBA (FIG. 8C). There was a steady increase in differentiated cells from 48 hours onwards, that generally reached 35-45%, at 120 hours. […] Cultures were not continued beyond 120 hours, because at this time Notch-1 was reproducibly undetectable.

[6] = patients; cited from earlier work
SY5Y cells = assay: SY5Y cell survival with S-oligos and antineoplastic agent (CellTiter 96 AQueous assay); type: cell-based, human; conditions: 50 ng/ml agent, S-oligos 25-100 μM, 1 μM RA
Experimental: SY5Y cells, a neuroblastoma cell line (Example 3) were split into 96 well plates and grown in RPMI 1640 with glutamine, 10% FCS and 1 μM RA. At approximately 60% confluence, the phosphorothioate oligonucleotides (S-oligos, antisense, sense and scrambled; see Example 10) at various concentrations (25, 50, 75 and 100 μM) were added. Subsequently, 50 ng/ml of vinblastine (Sigma, St. Louis Mo., V-1377) was added to half of the wells (based on preliminary dose ranging experiments). Cell survival was measured using Promega's CellTiter 96 AQueous assay, which measures viable cells in the well. Paclitaxel (Sigma, St. Louis Mo., T-1912), another member of the […], was also tested (at 50 ng/ml) using this same assay.

thymocytes = assay: Apoptosis of thymocytes from Notch-1 antisense transgenic mice after dexamethasone; type: cell-based, mouse; conditions: thymocytes of Notch-1 antisense transgenic mice, pharmacologic dose
From the text: A pMAMneo plasmid was used which contained the same insert that was used in the pcDNA 3.1 plasmid that was introduced into the MEL cells. This construct expresses the antisense under a MMTV LTR promoter, which has good basal activity and is stimulated by several steroid hormones, such as estradiol, glucocorticoids and androgens. The plasmid was linearized, purified, and microinjected into mouse embryos which were then implanted into surrogate mothers. Pups were screened for the presence of the transgene by PCR on tail snippets. This was done on two separate instances, which generated one positive founder male and one positive founder female containing Notch-1 antisense in their genomes. The founder animals were separately bred into a C57bl6 background for several generations until homozygous positive mice were obtained which bred true (generated all positive litters).
Pharmacological stimuli were used to induce apoptosis more readily in thymocyte cells from these mice.
Thymocytes undergo differentiation in the thymus, and normally express Notch-1. Spontaneous apoptosis levels in thymocytes were not increased, but apoptosis and cell death levels were increased about 50% by a pharmacologic dose of dexamethasone, a steroid used for the treatment of T-cell leukemias which induces rapid terminal differentiation and death in thymocytes. […]

actin = assay: Actin levels in S-oligo treated MEL cells; type: cell-based, mouse; conditions: sense, antisense and scrambled compared
Experimental: (§1) The late apoptotic fraction (sub-G1 peak) in cells treated with Lin-12 sense, antisense and scrambled S-oligos in the presence of HMBA was determined by flow cytometry (FIG. 11B). […] The Lin-12 antisense S-oligo, but not the sense or scrambled control, decreased expression of Notch-1 protein by 50-75% at 48 hours in three experiments. […] Actin expression was also unaffected by a transfected 1100 bp construct in a plasmid, as discussed below in Example 11.

Notch-1 protein = Notch-1 protein expression in S-oligo treated MEL cells; type: cell-based, mouse; conditions: at 48 hours, three experiments
Experimental: as §1
Cell pellets were solubilized in hot 2×SDS sample buffer containing 10% β-ME and analyzed by 4% SDS/PAGE. Proteins were electroblotted to Immobilon P (Millipore) in 10 mM CAPS with 10% methanol at 0.75 A for 5 hours. Notch-1 proteins were detected using a chemiluminescence Western blotting kit (Boehringer Mannheim) according to manufacturer's instructions. Relative band intensities were determined by the Kodak 1-D analysis software.

MEL cells [7] = assay: Late apoptotic fraction (sub-G1 peak) and viability of S-oligo treated MEL cells, flow cytometry; type: cell-based, mouse
Experimental: as §1
Parental MEL or transfected clones were synchronized for cell cycle analysis experiments by density arrest (Ryan et al., Mol. Cell Biol. 1993, 13:711-719). At this point, cells were plated at 1×10^5 cells/ml in medium containing 5 mM HMBA. For the transfected clones, 700 μg/ml G418 was added to the medium. At 16 hours, cells were harvested, fixed in 1% paraformaldehyde for 15 minutes and then 70% ethanol overnight. Cells were resuspended, at constant cell density, in PI solution (50 μg/ml PI (propidum iodide), 0.1% Triton-X-100, 200 μg/ml RNAase A) for 1 hour at room temperature with mixing. […] The DNA content of cells was determined using a Becton Dickinson FACScan flow cytometer. Cells appearing as a sub-G1 peak were scored as apoptotic. In cell cycle analyses, apoptotic and dead cells were gated out and only the viable population was analyzed.

3T3-L1 cells = conditions: Garcés et al. 1997; cited from earlier work

In the case of `CC(=O)NCCCCCCCCNCC=O`, the “Transformed cells HL-60” value [1] is given as “+”, the “Transformed cells HT-29” value [2] is given as “+” and the “Transformed cells MEL” value [3] is given as “+”. For the same compound, the “Opt. [ ], μM (Optimal concentration)” value (Transformed cells) was 5,000 μM.

For `CNC(=O)CCCCCCCCC(=O)NC`, the “Transformed cells HL-60” value [1] is given as “+”, the “Transformed cells HT-29” value [2] is given as “+” and the “Transformed cells MEL” value [3] is given as “+”. The “Opt. [ ], μM (Optimal concentration)” value (Transformed cells) was 5,000 μM.

For `O=C(CCCCCCCCC(=O)NO)NO`, the “Transformed cells HL-60” value [1] is listed as “+”, the “Transformed cells HT-29” value [2] is listed as “+” and the “Transformed cells MEL” value [3] is listed as “+”. The “Opt. [ ], μM (Optimal concentration)” value (Transformed cells) was 10 to 60 µM.

For `O=C(/C=C/c1ccc(C(=O)NO)cc1)NO`, the “Transformed cells HL-60” value [1] is given as “+”, the “Transformed cells HT-29” value [2] is given as “+” and the “Transformed cells MEL” value [3] is given as “+”. The “Opt. [ ], μM (Optimal concentration)” value (Transformed cells) was 10 to 60 µM.

In the case of `O=C(CCCCCNC(=O)Nc1cccc(Cl)c1)NO` [3-Cl-UCHA], the “HG cells, % (% of cells hemoglobinized)” value (MEL cells [4]) is given as 32% and the “Opt. [ ], μM (Optimal concentration)” value (MEL cells [4]) is given as 4.0 µM.

In the case of `O=C(/C=C/c1cccc(C(=O)NO)c1)NO` [CBHA, m-carboxycinnamic acid bishydroxamide], the “HG cells, % (% of cells hemoglobinized)” value (MEL cells [4]) is listed as 73% and the “Opt. [ ], μM (Optimal concentration)” value (MEL cells [4]) is listed as 4.0 µM.

In the case of `CC(=O)NCCCCCCNC(C)=O` [HMBA, hexamethylene bisacetamide], the “effect on Notch-1 expression pattern” value (Notch-1) is listed as “causing an early increase in Notch-1 followed by a progressive decline”, the “HG cells, % (% of cells hemoglobinized)” value (MEL cells [4]) is listed as 95% and the “Opt. [ ], μM (Optimal concentration)” value (MEL cells [4]) is listed as 5,000 μM. For the same compound, the “differentiated (benzidine-positive) cells” value (MEL cells [5]) was 35-45% and the “adverse effect of therapy” value [6] was “can result in thrombocytopenia”.

For `CC(=O)O[C@H]1C(=O)[C@@]2(C)[C@H]([C@H](OC(=O)c3ccccc3)[C@]3(O)C[C@H](OC(=O)[C@H](O)[C@@H](NC(=O)c4ccccc4)c4ccccc4)C(C)=C1C3(C)C)[C@]1(OC(C)=O)CO[C@@H]1C[C@@H]2O` [Paclitaxel], the “cell survival, antineoplastic agent combined with Notch-1 antisense S-oligos” value (SY5Y cells) was “cell survival was decreased to a greater extent”.

For `O=C(CCCCCCC(=O)Nc1ccccc1)NO` [SAHA, Suberoylanilide hydroxamic acid], the “HG cells, % (% of cells hemoglobinized)” value (MEL cells [4]) is listed as 68% and the “Opt. [ ], μM (Optimal concentration)” value (MEL cells [4]) is listed as 2.5 µM.

For `O=C(CCCCCCC(=O)NO)NO` [SBHA], the “HG cells, % (% of cells hemoglobinized)” value (MEL cells [4]) is given as 94% and the “Opt. [ ], μM (Optimal concentration)” value (MEL cells [4]) is given as 30 µM.

In the case of `CC(/C=C/C(=O)NO)=C\[C@@H](C)C(=O)c1ccc(N(C)C)cc1` [TSA], the “HG cells, % (% of cells hemoglobinized)” value (MEL cells [4]) is listed as 80% and the “Opt. [ ], μM (Optimal concentration)” value (MEL cells [4]) is listed as 0.075 µM.

In the case of `C[C@@H]1C[C@H]2[C@@H]3CCC4=CC(=O)C=C[C@]4(C)[C@@]3(F)[C@@H](O)C[C@]2(C)[C@@]1(O)C(=O)CO` [dexamethasone], the “increase of apoptosis and cell death levels” value (thymocytes) is reported as “about 50%”.

With `CC[C@]1(O)C[C@@H]2CN(CCc3c([nH]c4ccccc34)[C@@](C(=O)OC)(c3cc4c(cc3OC)N(C)[C@H]3[C@@](O)(C(=O)OC)[C@H](OC(C)=O)[C@]5(CC)C=CCN6CC[C@]43[C@@H]65)C2)C1` [vinblastine] the “cell survival, antineoplastic agent combined with Notch-1 antisense S-oligos” value (SY5Y cells) was “cell survival was decreased to a greater extent”.

In the case of “AGACTGCGTGCAGTTCTTCCAGG (all phosphorothioate, sugars by position and methylation of C not given here) [Lin-12 antisense S-oligo, phosphorothioate antisense oligo for the Lin/Notch region of Notch-1]”, the actin levels (actin) is reported as “No difference in actin levels”, the “decrease of Notch-1 protein expression” value (Notch-1 protein) is reported as 50-75% and the “late apoptotic fraction (sub-G1 peak)” value (MEL cells [7]; 25 μM S-oligo in the presence of HMBA, 120 hours) is reported as “significantly larger effect than either sense (SEN) or scrambled (SCR) controls”. For the same compound, the “viability (cells within G1, G2/S or M regions)” value (MEL cells [7]; S-oligo in the presence of HMBA) was “parallel decrease in viability”.

For “rh11-12: human recombinant Notch-1 EGF-repeats 11 and 12, 6-Histidine tagged, expressed in E. coli”, the “effect on differentiation of 3T3-L1 cells” value (3T3-L1 cells) is given as “blocked their differentiation”.
